In one test the test system is COX in SW480 cells. The test is described as follows: COX activity in treated cells. The format is cell-based, human.
Test [1] deals with HCT116 cells. The test is described as follows: Ceramide levels, E. coli diacylglycerol (DAG) kinase assay. The format is cell-based, human. The procedure: Cells were harvested and ceramide was quantified. The first lane of each panel corresponds to a ceramide standard (ceramide type III, Sigma). […] HCT116 and SW480 cells were treated with SUS or INDO as indicated. Ceramide levels were determined as described above. […] Control cells were treated with DMSO vehicle only. Cells were harvested at the indicated times following treatment and ceramide levels were determined as described above. The data are plotted as the mean of at least two experiments with the error bars corresponding to the standard deviation.
(§1) Ceramide levels were measured using the Escherichia coli diacylglycerol (DAG) kinase assay as previously described (30) with the following modifications. After the initial lipid extraction, phases were broken by adding 2 ml chloroform and 2 ml 1M NaCl and lipids were washed with 1M NaCl prior to drying under nitrogen (32, 33). After solubilization, samples were sonicated for 15 seconds. The DAG reaction was performed for 30 minutes at 25° C. in a 100 μl reaction volume with 3.5 μg DAG kinase (Calbiochem) and […] γ^32 P-ATP (Dupont NEN, 6000 Ci/mmol). After extraction of the labeled lipids, the lower chloroform phase was washed with 1% HCl prior to drying under nitrogen. The solvent mixture for thin layer chromatography was chloroform:acetone:methanol:acetic acid:water (10:4:3:2:1). Samples were quantitated using a Phosphorimager (Molecular Dynamics).

The subject of test [2] is HCT116 cells. Type of test: cell-based, human. The procedure:
FIGS. 1A, 1B and 1C NSAID induce apoptosis in human colorectal cancer cells. In FIG. […] Cells were collected at the indicated times, fixed and stained with Hoechst 33258 (23). The cells were counted and those with fragmented nuclei were scored as apoptotic. In FIG. 1B, HCT116 and SW480 cells were treated with SUS or INDO for 60 hours, harvested and stained as described above. Cells treated with SUS or INDO show the hallmarks of apoptosis.
This death appeared to be apoptotic, as it was accompanied by nuclear condensation and fragmentation (FIG. 1B) and exposure of phosphatidylserine groups on the cell surface, two hallmarks of apoptosis (11, 12).

Test [3] concerns immortalized human keratinocytes (HaCat). Description: Apoptosis in immortalized keratinocytes. The following applies: 48 h, read-out: cells that had undergone apoptosis. The format is cell-based. The procedure:
(§2) This ability of SUS is not limited to colon cancer cells; primary fibroblasts and immortalized keratinocytes can increase ceramide levels and undergo apoptosis in response to SUS. […] Forty-eight hours after exposure to 200 μM SUS greater than 70% of the cells had undergone apoptosis and ceramide levels were 8.2 and 4.7 fold increased in HDF and HaCat cells, respectively. This is consistent with NSAIDs' ability to reduce tumor formation in a variety of tissues (19) and their adverse effects on normal gastric mucosa, but it fails to explain the apparent greater sensitivity of tumor cells. The in vivo effect will likely depend on the local concentration of the NSAID in the incipient tumor microenvironment as well as the target cell's "lipid biostat" (20). The fact that the concentration of SUS is higher in the intestines than in other organs, due to enterohepatic circulation and due to the metabolic activation of sulindac to SUS by gut flora (21), may be responsible for its particular efficacy in intestinal tumorigenesis.

Test [4] relates to primary human diploid fibroblast (HDF). Description: Ceramide levels in primary fibroblasts. The format is cell-based. The following applies: 200 μM SUS, 48 hours, read-out: increase in ceramide levels. The procedure: as §1
(§3) This ability of SUS is not limited to colon cancer cells; primary fibroblasts and immortalized keratinocytes can increase ceramide levels and undergo apoptosis in response to SUS. […] Forty-eight hours after exposure to 200 μM SUS greater than 70% of the cells had undergone apoptosis and ceramide levels were 8.2 and 4.7 fold increased in HDF and HaCat cells, respectively. […]

The test system of the next test is COX in HCT116 cells. Description: COX activity in treated cells. Type of test: cell-based, human.
Test [5] concerns primary human diploid fibroblast (HDF). The test is described as follows: Apoptosis in primary fibroblasts. The following applies: 200 μM SUS, 48 hours, read-out: cells that had undergone apoptosis. The format is cell-based. The procedure: as §2
Another test relates to SW480 cells. The test is described as follows: Sphingomyelin levels, bacterial sphingomyelinase method. Type of test: cell-based, human. How it is done: (§4) FIGS. 4A, 4B, 4C, 4D, 4E and 4F. The role of arachidonic acid in NSAID-mediated apoptosis. […] HCT116 and SW480 cells were treated with the indicated concentrations of SUS or INDO. Arachidonic acid (AA) levels were determined by measuring release of ^3 H-AA into the media as previously described (18). Data are indicated as the mean of three replicates with the error bars corresponding to the standard deviation. In addition, the nature of the released radiolabeled material was evaluated by thin layer chromatography as previously described (28). […] HCT116 and SW480 cells were incubated with ^3 H-choline chloride (0.5 mCi ml^-1, 80 Ci mmol^-1, New England Nuclear) for 48 hours. After labeling, cells were washed with HBSS (Gibco) and treated with SUS or INDO for the indicated times. Sphingomyelin measurements were performed using the bacterial sphingomyelinase method as previously described (18). Sphingomyelin levels at each time point are plotted as a percentage of that in untreated control cells. For each point, the mean of at least two independent experiments is presented with the error bars corresponding to the standard deviations. […] SW480 cells were treated with 200 μM arachidonic acid (AA), SUS (SUS) or behenic acid as a control fatty acid (FA) as indicated. […] SW480 cells were treated with suboptimal doses (100 μM) of arachidonic acid (AA), SUS (SUS), or both (AA+SUS) as indicated. After 48 hours of treatment, apoptosis and ceramide increases were assessed as described for FIGS. 1 and 3, respectively. Ceramide increases (left axis) were expressed as fold increases relative to untreated cells. Apoptosis (right axis) was expressed as percent apoptotic cells minus percent apoptotic cells in untreated cells (5.6%+/-2.4). Data are indicated as the mean of duplicates with the error bars corresponding to the standard deviation.
(§5) To test whether the increased ceramide was associated with evidence of augmented sphingomyelinase activity, we measured total sphingomyelin levels after SUS treatment. […] We also measured neutral sphingomyelinase activity in lysates from the treated cells and no differences were found. Neutral sphingomyelinase activity was assayed as described (18). After cell lysis, protein concentrations were determined using the Bradford method (Bio-Rad) and […] cellular protein was used in each assay. Neutral sphingomyelinase activity was determined by measuring the rate of hydrolysis of ^14 C-labelled sphingomyelin (Amersham). SW480 and HCT116 cell lines were treated with SUS (50, 200, and 600 μM) for 6 to 24 hours.

For test [6], the system named is HCT116 cells. The description is as above. Type of test: cell-based, human. How it is done: as §4, §5
For test [7], the system named is immortalized human keratinocytes (HaCat). Description: Ceramide levels in immortalized keratinocytes. Type of test: cell-based. The following applies: 48 h, read-out: increase in ceramide levels. How it is done: as §1, §3

Where two headings read alike, the source gives them in different places.

On to `CSc1ccc(/C=C2/C(C)=C(CC(=O)O)c3cc(F)ccc32)cc1` [SUS, sulindac sulfide], for which the “COX activity, % of controls” value was 74+/-22% in the test on COX in SW480 cells (50 μM SUS), 37+/-27% with COX in SW480 cells (200 μM SUS) and 21+/-15% in the test with COX in HCT116 cells (125 μM SUS). In addition, the “ceramide levels early after treatment” value in the test with HCT116 cells [1] (8 hours post-treatment, before morphologic features of apoptosis) is given as “increased to substantial levels”. Also, in the test on HCT116 cells [1] (Homo sapiens, HCT-116, SUS 125 μM, with or without 10 μM CHX, 48 hours, read-out: fold increase in ceramide levels relative to vehicle controls), the fold induction at 125 µM was 10 ± 0.4. Besides, the ceramide induction entry is “induced neither” in the test on HCT116 cells [1] (SUS 50 μM); “induced both cell death and ceramide” in the test on HCT116 cells [1] (SUS 125 μM). Besides, the “time of maximum ceramide induction” value with HCT116 cells [1] (SUS 125 μM) fell in the range of 24 to 48 h. Besides, the apoptosis entry is on record as “the majority of cells had not yet undergone apoptosis” with HCT116 cells [2] (200 μM SUS, 16 hours) and “underwent apoptosis” in the test with HCT116 cells [2] (SUS 125 μM, with or without 10 μM CHX, 48 hours). In addition, in the test with HCT116 cells [2] (SUS 50 μM), the cell death entry is on record as “induced neither”. Besides, the cytotoxicity at 200 µM in test [3] and in [5] was more than 70% in each case. Moreover, the fold induction at 200 µM stood at 8.2 in test [4] and 4.7 in test [7]. Besides, in the test on COX in HCT116 cells (50 μM SUS), the “COX activity, % relative to controls” value was 98+/-30%. Further, the “decrease in sphingomyelin levels” value in the test with SW480 cells (48 hours after SUS treatment) was 40-50%; with SW480 cells (suboptimal doses of SUS) it was “inadequate to decrease sphingomyelin levels”; in the test on HCT116 cells [6] (48 hours after SUS treatment), 40-50%; in the test with HCT116 cells [6] (suboptimal doses of SUS) it was “inadequate to decrease sphingomyelin levels”.

The record behind these values is patent US5874235A, “Screening assays for cancer chemopreventative agents” (The Johns Hopkins University, priority 1997, dated 1999).
